Measured values as given in patent US20070128217A1 (priority 2003, published 2007).

What was measured:
[1] = system: antibodies in sera from SARS patients (sera 1a, 1b, 2, 6, 37, 62, London, SARS-yellow, SARS-green); type: binding, human; set-up: Binding of serum 6 to linear peptides of protein X1 of SARS-CoV Urbani / Binding of serum 37 to linear peptides of protein X1 of SARS-CoV Urbani / Binding of serum 6 to looped/cyclic peptide (PEPSCAN-ELISA) / Binding of serum 37 to looped/cyclic peptide (PEPSCAN-ELISA) / Binding of serum 37 to looped/cyclic peptides of protein X1 of SARS-CoV Urbani / Binding of serum 6 to linear peptides of protein X2 / Binding of serum 37 to linear peptides of protein X2 / Binding of serum 37 to looped/cyclic peptides of protein X2 of SARS-CoV Urbani / Binding of serum 6 to linear peptides of protein M of SARS-CoV Urbani / Binding of serum 37 to linear peptides of protein M of SARS-CoV Urbani / Binding of serum 6 to looped/cyclic peptides of protein M of SARS-CoV Urbani / Binding of serum 37 to looped/cyclic peptides of protein M of SARS-CoV Urbani / Binding of serum 6 to linear peptides of protein X3 of SARS-CoV Urbani / Binding of serum 37 to linear peptides of protein X3 of SARS-CoV Urbani / Binding of serum 37 to looped/cyclic peptides of protein X3 of SARS-CoV Urbani / Binding of serum 6 to linear peptides of protein X4 of SARS-CoV Urbani / Binding of serum 37 to linear peptides of protein X4 of SARS-CoV Urbani / Binding of serum 37 to looped/cyclic peptides of protein X4 of SARS-CoV Urbani / Binding of serum 6 to linear peptides of protein X5 of SARS-CoV Urbani / Binding of serum 37 to linear peptides of protein X5 of SARS-CoV Urbani / Binding of serum 37 to looped/cyclic peptides of protein X5 of SARS-CoV Urbani / Binding of serum 6 to linear peptides of protein N of SARS-CoV Urbani / Binding of serum 37 to linear peptides of protein N of SARS-CoV Urbani / Binding of serum 6 to linear peptide (PEPSCAN-ELISA) / Binding of serum 1a to looped/cyclic peptides of protein N of SARS-CoV Urbani / Binding of serum 1b to looped/cyclic peptides of protein N of SARS-CoV Urbani / Binding of serum 2 to looped/cyclic peptides of protein N of SARS-CoV Urbani / Binding of serum 6 to looped/cyclic peptides of protein N of SARS-CoV Urbani / Binding of serum 37 to looped/cyclic peptides of protein N of SARS-CoV Urbani / Binding of serum 62 to looped/cyclic peptides of protein N of SARS-CoV Urbani / Binding of serum London to looped/cyclic peptides of protein N of SARS-CoV Urbani / Binding of serum SARS-green to looped/cyclic peptides of protein N of SARS-CoV Urbani: unit not given here
[2] = system: control sera (pooled serum of ten healthy LUMC hospital workers; commercial negative donor pooled serum from the Dutch bloodbank); type: binding, human; set-up: Binding of Control serum LUMC to linear peptides / Binding of Control serum Blood-bank to linear peptides / Binding of Control serum LUMC to looped peptides / Binding of Control Serum Blood-Bank to Looped peptides / Binding of Control serum LUMC to linear peptides of the protein M of SARS-CoV Urbani / Binding of Control serum Blood-bank to linear peptides of the protein M of SARS-CoV Urbani / Binding of Control serum LUMC to looped peptides of the protein M of SARS-CoV Urbani / Binding of Control Serum Blood-Bank to Looped peptides of the protein M of SARS-CoV Urbani: unit not given here
[3] = system: rabbit serum obtained by immunizing a rabbit with the SARS-CoV strain Frankfurt 1; type: binding; set-up: Binding of a rabbit serum to linear peptides / Binding of a rabbit serum to looped peptides / Rabbit serum linear peptides / Rabbit serum looped peptides / Binding of a rabbit serum to linear peptides of protein N of SARS-CoV Urbani (Rabbit serum linear peptides) / Binding of a rabbit serum to looped/cyclic peptides of protein N of SARS-CoV Urbani (Rabbit serum looped peptides): unit not given here

## SMWSFNPETNILLNV
[1]
  Binding of serum 1a to linear peptides of protein M of SARS-CoV Urbani: 0.8
  Binding of serum 1a to looped/cyclic peptides of protein M of SARS-CoV Urbani: 0.7
  Binding of serum 1b to linear peptides of protein M of SARS-CoV Urbani: 0.7
  Binding of serum 1b to looped/cyclic peptides of protein M of SARS-CoV Urbani: 0.1
  Binding of serum 2 to linear peptides of protein M of SARS-CoV Urbani: 0.5
  Binding of serum 2 to looped/cyclic peptides of protein M of SARS-CoV Urbani: 0.8
  Binding of serum 6 to linear peptides of protein M of SARS-CoV Urbani: 0.5
  Binding of serum 6 to looped/cyclic peptides of protein M of SARS-CoV Urbani: 0.6
  Binding of serum 37 to linear peptides of protein M of SARS-CoV Urbani: 0.5
  Binding of serum 37 to looped/cyclic peptides of protein M of SARS-CoV Urbani: 0.8
  Binding of serum 62 to linear peptides of protein M of SARS-CoV Urbani: 0.5
  Binding of serum 62 to looped/cyclic peptides of protein M of SARS-CoV Urbani: 0.7
  Binding of serum London to linear peptides of protein M of SARS-CoV Urbani: 0.4
  Binding of serum London to looped/cyclic peptides of protein M of SARS-CoV Urbani: 0.2
  Binding of serum SARS-green to linear peptides of protein M of SARS-CoV Urbani: 0.5
  Binding of serum SARS-green to looped/cyclic peptides of protein M of SARS-CoV Urbani: 0.2
  Binding of serum SARS-yellow to linear peptides of protein M of SARS-CoV Urbani: 0.2
  Binding of serum SARS-yellow to looped/cyclic peptides of protein M of SARS-CoV Urbani: 0.7
[2]
  Binding of Control Serum Blood-Bank to Looped peptides of the protein M of SARS-CoV Urbani: 0.8
  Binding of Control serum Blood-bank to linear peptides of the protein M of SARS-CoV Urbani: 0.8
  Binding of Control serum LUMC to linear peptides of the protein M of SARS-CoV Urbani: 0.8
  Binding of Control serum LUMC to looped peptides of the protein M of SARS-CoV Urbani: 0.7
[3]
  Rabbit serum linear peptides: 0.2
  Rabbit serum looped peptides: 0.4

## QITTDTGIENATFFI
[1]
  Binding of serum 1a to linear peptides of protein X1 of SARS-CoV Urbani: 0.7
  Binding of serum 1a to looped/cyclic peptides of protein X1 of SARS-CoV Urbani: 0.7
  Binding of serum 1b to linear peptides of protein X1 of SARS-CoV Urbani: 0.6
  Binding of serum 1b to looped/cyclic peptides of protein X1 of SARS-CoV Urbani: 0.7
  Binding of serum 2 to linear peptides of protein X1 of SARS-CoV Urbani: 0.4
  Binding of serum 2 to looped/cyclic peptides of protein X1 of SARS-CoV Urbani: 0.6
  Binding of serum 6 to linear peptides of protein X1 of SARS-CoV Urbani: 0.4
  Binding of serum 6 to looped/cyclic peptides of protein X1 of SARS-CoV Urbani: 0.5
  Binding of serum 37 to linear peptides of protein X1 of SARS-CoV Urbani: 0.6
  Binding of serum 37 to looped/cyclic peptides of protein X1 of SARS-CoV Urbani: 1.0
  Binding of serum 62 to linear peptides of protein X1 of SARS-CoV Urbani: 0.4
  Binding of serum 62 to looped/cyclic peptides of protein X1 of SARS-CoV Urbani: 0.9
  Binding of serum London to linear peptides of protein X1 of SARS-CoV Urbani: 0.3
  Binding of serum London to looped/cyclic peptides of protein X1 of SARS-CoV Urbani: 0.3
  Binding of serum SARS-green to linear peptides of protein X1 of SARS-CoV Urbani: 0.3
  Binding of serum SARS-green to looped/cyclic peptides of protein X1 of SARS-CoV Urbani: 0.5
  Binding of serum SARS-yellow to linear peptides of protein X1 of SARS-CoV Urbani: 0.3
  Binding of serum SARS-yellow to looped/cyclic peptides of protein X1 of SARS-CoV Urbani: 0.5
[2]
  Binding of Control Serum Blood-Bank to Looped peptides: 0.5
  Binding of Control serum Blood-bank to linear peptides: 0.5
  Binding of Control serum LUMC to linear peptides: 0.6
  Binding of Control serum LUMC to looped peptides: 0.8
[3]
  Binding of a rabbit serum to linear peptides: 0.1
  Binding of a rabbit serum to looped peptides: 1.5

## TVATSRTLSYYKLGA
[1]
  Binding of serum 1a to linear peptides of protein M of SARS-CoV Urbani: 0.7
  Binding of serum 1a to looped/cyclic peptides of protein M of SARS-CoV Urbani: 0.8
  Binding of serum 1b to linear peptides of protein M of SARS-CoV Urbani: 0.6
  Binding of serum 1b to looped/cyclic peptides of protein M of SARS-CoV Urbani: 0.4
  Binding of serum 2 to linear peptides of protein M of SARS-CoV Urbani: 0.7
  Binding of serum 2 to looped/cyclic peptides of protein M of SARS-CoV Urbani: 0.6
  Binding of serum 6 to linear peptides of protein M of SARS-CoV Urbani: 0.6
  Binding of serum 6 to looped/cyclic peptides of protein M of SARS-CoV Urbani: 1.1
  Binding of serum 37 to linear peptides of protein M of SARS-CoV Urbani: 0.8
  Binding of serum 37 to looped/cyclic peptides of protein M of SARS-CoV Urbani: 0.5
  Binding of serum 62 to linear peptides of protein M of SARS-CoV Urbani: 0.8
  Binding of serum 62 to looped/cyclic peptides of protein M of SARS-CoV Urbani: 0.5
  Binding of serum London to linear peptides of protein M of SARS-CoV Urbani: 0.4
  Binding of serum London to looped/cyclic peptides of protein M of SARS-CoV Urbani: 0.3
  Binding of serum SARS-green to linear peptides of protein M of SARS-CoV Urbani: 0.3
  Binding of serum SARS-green to looped/cyclic peptides of protein M of SARS-CoV Urbani: 0.4
  Binding of serum SARS-yellow to linear peptides of protein M of SARS-CoV Urbani: 0.1
  Binding of serum SARS-yellow to looped/cyclic peptides of protein M of SARS-CoV Urbani: 0.5
[2]
  Binding of Control Serum Blood-Bank to Looped peptides of the protein M of SARS-CoV Urbani: 0.7
  Binding of Control serum Blood-bank to linear peptides of the protein M of SARS-CoV Urbani: 0.8
  Binding of Control serum LUMC to linear peptides of the protein M of SARS-CoV Urbani: 0.6
  Binding of Control serum LUMC to looped peptides of the protein M of SARS-CoV Urbani: 0.7
[3]
  Rabbit serum linear peptides: 0.8
  Rabbit serum looped peptides: 0.2

## SLHKLLQTLVLKMLH
[1]
  Binding of serum 1a to linear peptides of protein X2: 0.7
  Binding of serum 1a to looped/cyclic peptides of protein X2 of SARS-CoV Urbani: 0.6
  Binding of serum 1b to linear peptides of protein X2: 0.5
  Binding of serum 1b to looped/cyclic peptides of protein X2 of SARS-CoV Urbani: 0.5
  Binding of serum 2 to linear peptides of protein X2: 0.3
  Binding of serum 2 to looped/cyclic peptides of protein X2 of SARS-CoV Urbani: 0.4
  Binding of serum 6 to linear peptides of protein X2: 0.3
  Binding of serum 6 to looped/cyclic peptides of protein X2 of SARS-CoV Urbani: 0.3
  Binding of serum 37 to linear peptides of protein X2: 0.4
  Binding of serum 37 to looped/cyclic peptides of protein X2 of SARS-CoV Urbani: 0.4
  Binding of serum 62 to linear peptides of protein X2: 0.6
  Binding of serum 62 to looped/cyclic peptides of protein X2 of SARS-CoV Urbani: 0.7
  Binding of serum London to linear peptides of protein X2: 0.3
  Binding of serum London to looped/cyclic peptides of protein X2 of SARS-CoV Urbani: 0.3
  Binding of serum SARS-green to linear peptides of protein X2: 0.4
  Binding of serum SARS-green to looped/cyclic peptides of protein X2 of SARS-CoV Urbani: 0.3
  Binding of serum SARS-yellow to linear peptides of protein X2: 0.1
  Binding of serum SARS-yellow to looped/cyclic peptides of protein X2 of SARS-CoV Urbani: 0.5
[2]
  Binding of Control Serum Blood-Bank to Looped peptides: 0.7
  Binding of Control serum Blood-bank to linear peptides: 0.6
  Binding of Control serum LUMC to linear peptides: 0.3
  Binding of Control serum LUMC to looped peptides: 0.7
[3]
  Binding of a rabbit serum to linear peptides: 0.3
  Binding of a rabbit serum to looped peptides: 0.5

## PLLYDANYFVCWHTH
[1]
  Binding of serum 1a to linear peptides of protein X1 of SARS-CoV Urbani: 0.9
  Binding of serum 1a to looped/cyclic peptide (PEPSCAN-ELISA): 0.6
  Binding of serum 1b to linear peptides of protein X1 of SARS-CoV Urbani: 0.8
  Binding of serum 1b to looped/cyclic peptide (PEPSCAN-ELISA): 0.6
  Binding of serum 2 to linear peptides of protein X1 of SARS-CoV Urbani: 0.6
  Binding of serum 2 to looped/cyclic peptide (PEPSCAN-ELISA): 0.4
  Binding of serum 6 to linear peptides of protein X1 of SARS-CoV Urbani: 0.6
  Binding of serum 6 to looped/cyclic peptide (PEPSCAN-ELISA): 0.4
  Binding of serum 37 to linear peptides of protein X1 of SARS-CoV Urbani: 0.8
  Binding of serum 37 to looped/cyclic peptide (PEPSCAN-ELISA): 0.7
  Binding of serum 62 to linear peptides of protein X1 of SARS-CoV Urbani: 0.8
  Binding of serum 62 to looped/cyclic peptide (PEPSCAN-ELISA): 0.7
  Binding of serum London to linear peptides of protein X1 of SARS-CoV Urbani: 0.4
  Binding of serum London to looped/cyclic peptide (PEPSCAN-ELISA): 0.2
  Binding of serum SARS-green to linear peptides of protein X1 of SARS-CoV Urbani: 0.4
  Binding of serum SARS-green to looped/cyclic peptide (PEPSCAN-ELISA): 0.3
  Binding of serum SARS-yellow to linear peptides of protein X1 of SARS-CoV Urbani: 0.5
  Binding of serum SARS-yellow to looped/cyclic peptide (PEPSCAN-ELISA): 0.4
[2]
  Binding of Control Serum Blood-Bank to Looped peptides: 0.6
  Binding of Control serum Blood-bank to linear peptides: 0.7
  Binding of Control serum LUMC to linear peptides: 0.6
  Binding of Control serum LUMC to looped peptides: 0.6
[3]
  Binding of a rabbit serum to linear peptides: 0.1
  Binding of a rabbit serum to looped peptides: 0.5
